Like-named read-outs stand apart in the source and are kept apart here.
Tests used:
[1] = system: acutely dissociated and purified rat OPCs; assay: Acute OL differentiation assay (MBP expression/cell, immunofluorescent image quantification); type: cell-based; settings: for activation at 0.4 µM / activation at 2 µM / activation at 10 µM: Rattus norvegicus
Procedure, shortened: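 This acute differentiation assay used purified rat OPCs from postnatal day 6–7 pups, seeded into PDL/laminin-coated 96-well plates in differentiation medium lacking PDGF and FGF. Compounds were applied in quadruplicate after a 1–2 h preincubation at 37 °C, 10 % CO2, with 0.1 % DMSO negative and 40 ng/ml T3 positive controls in eight wells. After fixation on DIV4, anti-MBP immunofluorescence images yielded MBP expression/cell.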

expanded OPCs = assay: cells; settings: for viability at 0.1 µM / viability at 1 µM / viability at 10 µM: Rattus norvegicus, 72 h; for 0.1 µM (% DMSO) / 1 µM (% DMSO) / 10 µM (% DMSO): alamarBlue viability of expanded OPCs; for 0.1 µM (% DMSO): compound at 0.1 µM; for 1 µM (% DMSO): compound at 1 µM; for 10 µM (% DMSO): compound at 10 µM
Procedure, shortened: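 Toxicity screen: compounds added at 0.1, 1 and 10 µM to PDGF-AA-expanded OPCs in 96-well plates, 3-day incubation at 37 °C, 10% CO2, then alamarBlue 1:10 for 4 h with fluorescence readout. Results set screening doses of 10/2, 2/0.4 or 0.4/0.08 µM.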

[2] = test compound at 0.4 uM, NCC library screen, sheet "All OLga data", relative to quetiapine, read-out: 0.4 uM (% Quet)
[3] = test compound at 2 uM, NCC library screen, sheet "All OLga data", relative to quetiapine, read-out: 2 uM (% Quet)
[4] = read-out: 0.1 µM (% DMSO), alamarBlue viability, NCC library compound at 0.1 µM, sheet "All Tox data"
[5] = read-out: 1 µM (% DMSO), alamarBlue viability, NCC library compound at 1 µM, sheet "All Tox data"
[6] = read-out: 10 µM (% DMSO), alamarBlue viability, NCC library compound at 10 µM, sheet "All Tox data"
[7] = 2 uM test compound, relative to quetiapine, sheet "All OLga data", read-out: OL differentiation, 2 uM (% Quet)
[8] = 10 uM test compound, relative to quetiapine, sheet "All OLga data", read-out: OL differentiation, 10 uM (% Quet)
[9] = read-out: 0.1 µM (% DMSO), alamarBlue viability of expanded OPCs, compound at 0.1 µM, sheet All Tox data
[10] = read-out: 1 µM (% DMSO), alamarBlue viability of expanded OPCs, compound at 1 µM, sheet All Tox data
[11] = read-out: 10 µM (% DMSO), alamarBlue viability of expanded OPCs, compound at 10 µM, sheet All Tox data
[12] = test compound at 2 uM, MBP expression relative to quetiapine, NCC library screen, sheet "All OLga data", read-out: 2 uM (% Quet)
[13] = test compound at 10 uM, MBP expression relative to quetiapine, NCC library screen, sheet "All OLga data", read-out: 10 uM (% Quet)
[14] = 0.4 uM test compound, relative to quetiapine, sheet "All OLga data", read-out: OL differentiation, 0.4 uM (% Quet)
[15] = test compound at 10 uM, NCC library screen, sheet "All OLga data", relative to quetiapine, read-out: 10 uM (% Quet)

| Structure (SMILES) | activation at 2 µM [1, 3] | activation at 2 µM [1, 7] | viability at 0.1 µM (expanded OPCs; [9]) | viability at 1 µM (expanded OPCs; [10]) | viability at 10 µM (expanded OPCs; [11]) | 0.1 µM (% DMSO) (expanded OPCs; relative to DMSO control) | 1 µM (% DMSO) (expanded OPCs; relative to DMSO control) | 10 µM (% DMSO) (expanded OPCs; relative to DMSO control) | also measured |
| --- | --- | --- | --- | --- | --- | --- | --- | --- | --- |
| CN1CCN2c3ncccc3Cc3ccccc3C2C1 (stereo not shown) [Mirtazapine] | -35.7% |  |  |  |  |  |  |  | activation at 0.4 µM [1, 2]: -26.7%; viability at 0.1 µM (expanded OPCs; [4]): 94.4%; viability at 1 µM (expanded OPCs; [5]): 73%; viability at 10 µM (expanded OPCs; [6]): 60.1% |
| O=C(NCCN1CCOCC1)c1ccc(Cl)cc1 [Moclobemide] |  | 9.8% | 99.2% | 110% | 113% |  |  |  | activation at 10 µM [1, 8]: -9.7% |
| NC(=O)C[S+]([O-])C(c1ccccc1)c1ccccc1 (stereo not shown) [Modafinil] |  | 15.5% | 105% | 94.6% | 99.6% |  |  |  | activation at 10 µM [1, 8]: -30.2% |
| CCc1c(C)[nH]c2c1C(=O)C(CN1CCOCC1)CC2 (stereo not shown) [Molindone] |  |  |  |  |  | 90.6 % DMSO | 95.4 % DMSO | 105.0 % DMSO | activation at 2 µM [1, 12]: 1.6%; activation at 10 µM [1, 13]: -34.4% |
| CC(C)(O)c1ccccc1CC[C@@H](SCC1(CC(=O)O)CC1)c1cccc(/C=C/c2ccc3ccc(Cl)cc3n2)c1 [Montelukast] |  | -31.7% |  |  |  |  |  |  | activation at 0.4 µM [1, 14]: 12.9%; viability at 0.1 µM (expanded OPCs; [4]): 95.5%; viability at 1 µM (expanded OPCs; [5]): 83%; viability at 10 µM (expanded OPCs; [6]): 11% |
| CCOc1cc(N)c(Cl)cc1C(=O)NCC1CN(Cc2ccc(F)cc2)CCO1 (stereo not shown) [Mosapride] |  | -17% | 102% | 104% | 130% |  |  |  | activation at 10 µM [1, 8]: 4.4% |
| COc1nc(C)nc(Cl)c1N=C1NCCN1 [Moxonidine] |  | -1.2% | 85.4% | 88.5% | 98.4% |  |  |  | activation at 10 µM [1, 8]: -26.2% |
| C/C(=C\C(=O)OCCCCCCCCC(=O)O)C[C@@H]1OC[C@H](C[C@@H]2O[C@H]2[C@@H](C)[C@H](C)O)[C@@H](O)[C@H]1O [Mupirocin] |  |  |  |  |  | 103.2 % DMSO | 108.1 % DMSO | 104.3 % DMSO | activation at 2 µM [1, 12]: -2.9%; activation at 10 µM [1, 13]: 0.04% |
| CN1CC[C@@H](c2ccc(F)cc2)[C@H](COc2ccc3c(c2)OCO3)C1 [N-Methylparoxetine] |  |  |  |  |  |  |  |  | OL differentiation, 0.4 uM (% Quet) ([1]; 0.4 uM test compound, relative to quetiapine, sheet "All OLga data"): -15.7 % Quet; OL differentiation, 2 uM (% Quet) ([1]; 2 uM test compound, relative to quetiapine, sheet "All OLga data"): -45.1 % Quet; 0.1 µM (% DMSO) (expanded OPCs; sheet All Tox data): 86.7 % DMSO; 1 µM (% DMSO) (expanded OPCs; sheet All Tox data): 60.7 % DMSO; 10 µM (% DMSO) (expanded OPCs; sheet All Tox data): 18.7 % DMSO |
| COc1ccc2cc(CCC(C)=O)ccc2c1 [Nabumetone] | 5.8% |  |  |  |  |  |  |  | activation at 10 µM [1, 15]: 14.1%; viability at 0.1 µM (expanded OPCs; [4]): 92%; viability at 1 µM (expanded OPCs; [5]): 90.9%; viability at 10 µM (expanded OPCs; [6]): 94.8% |
| CC(C)(C)NCC(O)COc1cccc2c1CC(O)C(O)C2 (stereo not shown) [Nadolol] | -14.4% |  |  |  |  | 102.3 % DMSO | 95.3 % DMSO | 94.0 % DMSO | activation at 10 µM [1, 15]: -35% |
| CCCCN1CCCC1CNC(=O)c1cc(C#N)c2ccccc2c1OC (stereo not shown) [Nafadotride] | 26.6% |  |  |  |  |  |  |  | activation at 0.4 µM [1, 2]: 7.6%; viability at 0.1 µM (expanded OPCs; [4]): 118%; viability at 1 µM (expanded OPCs; [5]): 131%; viability at 10 µM (expanded OPCs; [6]): 49.6% |
| CCOc1ccc2ccccc2c1C(=O)N[C@@H]1C(=O)N2[C@@H]1SC(C)(C)[C@@H]2C(=O)O [Nafcillin] | -20.5% |  |  |  |  | 104.4 % DMSO | 94.8 % DMSO | 90.0 % DMSO | activation at 10 µM [1, 15]: 0.11% |
| COc1ccccc1N1CCN(CC(O)COc2cccc3ccccc23)CC1 (stereo not shown) [Naftopidil] |  | -49.3% | 96.2% | 87.5% | 26.4% |  |  |  | activation at 0.4 µM [1, 14]: -7.9% |
| Oc1ccc2c3c1O[C@H]1[C@@H](O)CC[C@@]4(O)[C@@H](C2)N(CC2CCC2)CC[C@]314 [Nalbufina] |  |  |  |  |  |  |  |  | activation at 2 µM ([1]; read-out: OL differentiation, 2 uM (% Quet)): -0.9%; activation at 10 µM ([1]; read-out: OL differentiation, 10 uM (% Quet)): 19.7%; viability at 0.1 µM (expanded OPCs; read-out: 0.1 µM (% DMSO)): 99%; viability at 1 µM (expanded OPCs; read-out: 1 µM (% DMSO)): 98.8%; viability at 10 µM (expanded OPCs; read-out: 10 µM (% DMSO)): 99.1% |
| CCn1cc(C(=O)O)c(=O)c2ccc(C)nc21 [Nalidixic Acid] |  |  |  |  |  | 93.0 % DMSO | 93.1 % DMSO | 92.5 % DMSO | activation at 2 µM [1, 12]: -14.9%; activation at 10 µM [1, 13]: -17.1% |
| C=CCN1CC[C@]23c4c5ccc(O)c4O[C@H]2C(=O)CC[C@@]3(O)[C@H]1C5 [Naloxone] | -2.8% |  |  |  |  |  |  |  | activation at 10 µM [1, 15]: -10.8%; viability at 0.1 µM (expanded OPCs; [4]): 94.2%; viability at 1 µM (expanded OPCs; [5]): 90.1%; viability at 10 µM (expanded OPCs; [6]): 85.6% |
| O=C1CC[C@@]2(O)[C@H]3Cc4ccc(O)c5c4[C@@]2(CCN3CC2CC2)[C@H]1O5 [Naltrexone] |  |  |  |  |  | 99.5 % DMSO | 101.6 % DMSO | 97.3 % DMSO | activation at 2 µM [1, 12]: 12.8%; activation at 10 µM [1, 13]: -5.6% |
| Oc1ccc2c3c1O[C@H]1c4[nH]c5ccccc5c4C[C@@]4(O)[C@@H](C2)N(CC2CC2)CC[C@]314 [Naltrindole] |  | -35.8% | 80.6% | 66.7% | 17.9% |  |  |  | activation at 0.4 µM [1, 14]: -9.9% |
| C[C@]12CC[C@H]3[C@@H](CCC4=CC(=O)CC[C@@H]43)[C@@H]1CC[C@@H]2O [Nandrolone] |  | -5.9% | 94.4% | 98.5% | 96.2% |  |  |  | activation at 10 µM [1, 8]: -26.5% |
| c1ccc2c(CC3=NCCN3)cccc2c1 [Naphazoline] | -4.8% |  |  |  |  | 92.9 % DMSO | 92.8 % DMSO | 78.6 % DMSO | activation at 10 µM [1, 15]: -45.4% |
| COc1ccc2cc([C@H](C)C(=O)O)ccc2c1 [Naproxen] | 1% |  |  |  |  |  |  |  | activation at 10 µM [1, 15]: -0.6%; viability at 0.1 µM (expanded OPCs; [4]): 91.1%; viability at 1 µM (expanded OPCs; [5]): 95.1%; viability at 10 µM (expanded OPCs; [6]): 94% |
| CC(C)[C@H]1CC[C@H](C(=O)N[C@H](Cc2ccccc2)C(=O)O)CC1 [Nateglinide] |  | -26.4% | 93.4% | 92.4% | 99.5% |  |  |  | activation at 10 µM [1, 8]: -12.7% |

Reference: article PMC5011342, “A high throughput drug screening assay to identify compounds that promote oligodendrocyte differentiation using acutely dissociated and purified oligodendrocyte precursor cells” (BMC Research Notes, 2016)
